Results from article PMC5377010 (International Journal for Parasitology: Drugs and Drug …, 2017).

T1: Thioredoxin Reductase (gTrxR) (Giardia duodenalis, UniProt E2RU27)
T1 sequence (E2RU27 1-314): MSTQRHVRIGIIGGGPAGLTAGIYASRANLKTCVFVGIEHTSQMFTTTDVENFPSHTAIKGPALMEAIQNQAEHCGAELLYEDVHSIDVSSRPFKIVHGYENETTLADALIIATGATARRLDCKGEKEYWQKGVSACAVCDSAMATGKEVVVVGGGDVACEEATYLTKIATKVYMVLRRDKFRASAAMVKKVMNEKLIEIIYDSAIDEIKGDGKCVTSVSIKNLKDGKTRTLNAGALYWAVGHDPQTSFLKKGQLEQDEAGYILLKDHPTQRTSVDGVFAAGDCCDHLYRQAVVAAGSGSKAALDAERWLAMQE

T2: Elongation Factor 1Bγ (gEF1Bγ) (Giardia duodenalis, UniProt A8BFR0)
T2 sequence (A8BFR0 1-402): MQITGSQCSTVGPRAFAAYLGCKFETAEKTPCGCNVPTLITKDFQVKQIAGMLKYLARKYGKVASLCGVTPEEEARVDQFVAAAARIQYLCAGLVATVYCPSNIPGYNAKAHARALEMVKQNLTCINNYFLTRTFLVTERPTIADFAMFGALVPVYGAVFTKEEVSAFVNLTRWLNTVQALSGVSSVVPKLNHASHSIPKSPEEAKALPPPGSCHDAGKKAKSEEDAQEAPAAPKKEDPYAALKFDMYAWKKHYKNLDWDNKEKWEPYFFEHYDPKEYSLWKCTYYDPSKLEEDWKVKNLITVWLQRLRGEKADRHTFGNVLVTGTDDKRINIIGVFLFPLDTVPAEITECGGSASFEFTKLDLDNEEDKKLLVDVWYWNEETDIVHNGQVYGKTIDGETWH


Legend:
[1] = target: T1, Thioredoxin Reductase (gTrxR); experiment: intrinsic protein fluorescence quenching; format: binding
[2] = target: T2, Elongation Factor 1Bγ (gEF1Bγ); experiment: intrinsic protein fluorescence quenching; format: binding
[3] = substrate: NC(=O)C1=CN([C@@H]2O[C@H](COP(=O)(O)OP(=O)(O)OC[C@H]3O[C@@H](n4cnc5c(N)ncnc54)[C@H](OP(=O)(O)O)[C@@H]3O)[C@@H](O)[C@H]2O)C=CC1; experiment: purified protein; conditions: FAD NADPH-binding domain
[4] = substrate: O=C(O)c1cc(SSc2ccc([N+](=O)[O-])c(C(=O)O)c2)ccc1[N+](=O)[O-]; experiment: purified protein; conditions: FAD; NADPH site partially overlapping that of NBDHEX

Molecule | Kd [1] [µM] | Kd [2] [µM] | Km [3] [µM] | Km [4] [µM]
O=[N+]([O-])c1ccc(SCCCCCCO)c2nonc12 [NBDHEX, 6-(7-nitro-2,1,3-benzoxadiazol-4-ylthio)hexanol] | 0.14 ± 0.05 | < 0.4 | – | –
Thioredoxin Reductase (gTrxR) (Giardia lamblia ATCC 50803) (protein) MSTQRHVRIGIIGGGPAGLTAGIYASRANLKTCVFVGIEHTSQMFTTTDVENFPSHTAIKGPALMEAIQNQAEHCGAELLYEDVHSIDVSSRPFKIVHGYENETTLADALIIATGATARRLDCKGEKEYWQKGVSACAVCDSAMATGKEVVVVGGGDVACEEATYLTKIATKVYMVLRRDKFRASAAMVKKVMNEKLIEIIYDSAIDEIKGDGKCVTSVSIKNLKDGKTRTLNAGALYWAVGHDPQTSFLKKGQLEQDEAGYILLKDHPTQRTSVDGVFAAGDCCDHLYRQAVVAAGSGSKAALDAERWLAMQE | – | – | 2.6 ± 0.6 | 1500 ± 100
